# Columns and labels:
# Conditions in all cases: incubation time: 72 h
# HCC1599 [1] = experiment: drug sensitivity score (DSS), CellTox Green (DSS (AUC-based score)); higher = stronger drug effect (viability inhibition or cytotoxicity); extreme values may be limits of the assay
# Method in brief: (§1)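 Using 20 µl of cell suspension per well, breast cancer cell lines were seeded into 384-well plates pre-loaded with compound at 5 concentrations in 10-fold steps across a compound-specific 10,000-fold range. Incubation lasted 72 h, after which CellTox Green fluorescence at 485/520 nm and then CellTiter-Glo luminescence, following 10 min at room temperature, were recorded. Each plate was normalised to 0.1 % DMSO and a positive kill control before the drug sensitivity score was derived from the area under the fitted dose-response curve.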
# CAL-120 = experiment: as above
# Method in brief: as §1
# MDA-MB-468 [2] = experiment: as above
# Method in brief: as §1
# MDA-MB-436 = experiment: as above
# Method in brief: as §1
# CAL-51 [3] = experiment: as above
# Method in brief: as §1
# MDA-MB-231 [4] = experiment: as above
# Method in brief: as §1
# MCF-10A = experiment: as above
# Method in brief: as §1
# BT-474 [5] = experiment: as above
# Method in brief: as §1
# DU-4475 [6] = experiment: as above
# Method in brief: as §1
# Hs578T = experiment: as above
# Method in brief: as §1
# MDA-MB-453 = experiment: as above
# Method in brief: as §1
# HCC1937 [7] = experiment: as above
# Method in brief: as §1
# HDQ-P1 [8] = experiment: as above
# Method in brief: as §1
# CAL-85-1 = experiment: as above
# Method in brief: as §1
# HCC1599 [9] = experiment: normalised viability (% of control), CellTiter-Blue; higher = more viable cells (about 100 = DMSO control)
# Method in brief: (§2)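 Each entry is normalised viability at a single listed concentration within a series. It comes from breast cancer cell lines incubated 72 h with compound in 384-well plates, then measured with CellTiter-Blue fluorescence at 560/590 nm. Every plate was normalised between vehicle (100) and a positive kill control (0).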
# MDA-MB-468 [10] = experiment: as above
# Method in brief: as §2
# CAL-51 [11] = experiment: as above
# Method in brief: as §2
# MDA-MB-231 [12] = experiment: as above
# Method in brief: as §2
# BT-474 [13] = experiment: as above
# Method in brief: as §2
# HCC1143 [14] = experiment: as above
# Method in brief: as §2
# DU-4475 [15] = experiment: as above
# Method in brief: as §2
# HCC1937 [16] = experiment: as above
# Method in brief: as §2
# HDQ-P1 [17] = experiment: as above
# Method in brief: as §2
# HCC1143 [18] = experiment: drug sensitivity score (DSS), CellTox Green (DSS (AUC-based score)); higher = stronger drug effect (viability inhibition or cytotoxicity); extreme values may be limits of the assay
# Method in brief: as §1
# BT-549 = experiment: as above
# Method in brief: as §1
smiles,measurement,setting,value
CN(C)C(=N)NC(=N)N [Metformin],drug sensitivity score,HCC1599 [1],1.75
same,drug sensitivity score,CAL-120,0
same,drug sensitivity score,MDA-MB-468 [2],14.1
same,drug sensitivity score,MDA-MB-436,0
same,drug sensitivity score,CAL-51 [3],8.43
same,drug sensitivity score,MDA-MB-231 [4],0
same,drug sensitivity score,MCF-10A,0
same,drug sensitivity score,BT-474 [5],0
same,drug sensitivity score,DU-4475 [6],0
same,drug sensitivity score,Hs578T,4.84
same,drug sensitivity score,MDA-MB-453,0
same,drug sensitivity score,HCC1937 [7],0
same,drug sensitivity score,HDQ-P1 [8],0
same,drug sensitivity score,CAL-85-1,0
Cn1cc(C2=C(c3cn(C4CCN(Cc5ccccn5)CC4)c4ccccc34)C(=O)NC2=O)c2ccccc21 [Enzastaurin],normalised viability,HCC1599 [9]; 10 nM,101%
same,normalised viability,HCC1599 [9]; 1000 nM,93.2%
same,normalised viability,HCC1599 [9]; 10000 nM,82.4%
same,normalised viability,MDA-MB-468 [10]; 10 nM,103%
same,normalised viability,MDA-MB-468 [10]; 1000 nM,107%
same,normalised viability,MDA-MB-468 [10]; 10000 nM,62.8%
same,normalised viability,CAL-51 [11]; 3 nM,117%
same,normalised viability,CAL-51 [11]; 30 nM,111%
same,normalised viability,CAL-51 [11]; 100 nM,107%
same,normalised viability,MDA-MB-231 [12]; 10 nM,88.2%
same,normalised viability,MDA-MB-231 [12]; 1000 nM,89.6%
same,normalised viability,MDA-MB-231 [12]; 10000 nM,71.1%
same,normalised viability,BT-474 [13]; 10 nM,104%
same,normalised viability,BT-474 [13]; 1000 nM,92.7%
same,normalised viability,BT-474 [13]; 10000 nM,67%
same,normalised viability,HCC1143 [14]; 10 nM,76.8%
same,normalised viability,HCC1143 [14]; 1000 nM,64.8%
same,normalised viability,HCC1143 [14]; 10000 nM,61.5%
same,normalised viability,DU-4475 [15]; 3 nM,91.1%
same,normalised viability,DU-4475 [15]; 30 nM,103%
same,normalised viability,DU-4475 [15]; 100 nM,94.2%
same,normalised viability,HCC1937 [16]; 10 nM,91.1%
same,normalised viability,HCC1937 [16]; 1000 nM,75.6%
same,normalised viability,HCC1937 [16]; 10000 nM,48.9%
same,normalised viability,HDQ-P1 [17]; 3 nM,113%
same,normalised viability,HDQ-P1 [17]; 30 nM,107%
same,normalised viability,HDQ-P1 [17]; 100 nM,89.3%
same,drug sensitivity score,HCC1599 [1],0
same,drug sensitivity score,CAL-120,0
same,drug sensitivity score,MDA-MB-468 [2],0
same,drug sensitivity score,MDA-MB-436,0
same,drug sensitivity score,CAL-51 [3],0
same,drug sensitivity score,MDA-MB-231 [4],0
same,drug sensitivity score,MCF-10A,0
same,drug sensitivity score,BT-474 [5],0
same,drug sensitivity score,HCC1143 [18],0
same,drug sensitivity score,DU-4475 [6],0
same,drug sensitivity score,MDA-MB-453,0
same,drug sensitivity score,HCC1937 [7],0
same,drug sensitivity score,HDQ-P1 [8],0
same,drug sensitivity score,CAL-85-1,0
same,drug sensitivity score,BT-549,0
CCn1c(C(=O)N(C2CC2)C2CC2)cc2c3c(ncn3C)c(Nc3cc(C)n(C)n3)nc21,drug sensitivity score,HCC1599 [1],0
same,drug sensitivity score,CAL-120,0
same,drug sensitivity score,MDA-MB-468 [2],1.81
same,drug sensitivity score,MDA-MB-436,0
same,drug sensitivity score,CAL-51 [3],0
same,drug sensitivity score,MDA-MB-231 [4],0
same,drug sensitivity score,MCF-10A,0
same,drug sensitivity score,BT-474 [5],0
same,drug sensitivity score,HCC1143 [18],1.62
same,drug sensitivity score,DU-4475 [6],0
same,drug sensitivity score,Hs578T,0
same,drug sensitivity score,MDA-MB-453,0
same,drug sensitivity score,HCC1937 [7],3.5
same,drug sensitivity score,HDQ-P1 [8],0
same,drug sensitivity score,CAL-85-1,0
CC(C)n1cnc2c(NCCc3ccc(O)cc3)nc(-c3csc4ccccc34)nc21 [StemRegenin 1],drug sensitivity score,HCC1599 [1],0
same,drug sensitivity score,CAL-120,0
same,drug sensitivity score,MDA-MB-468 [2],0
same,drug sensitivity score,MDA-MB-436,0
same,drug sensitivity score,CAL-51 [3],0
same,drug sensitivity score,MDA-MB-231 [4],0
same,drug sensitivity score,MCF-10A,0
same,drug sensitivity score,BT-474 [5],1.03
same,drug sensitivity score,HCC1143 [18],0
same,drug sensitivity score,DU-4475 [6],0
same,drug sensitivity score,MDA-MB-453,0
same,drug sensitivity score,HCC1937 [7],0
same,drug sensitivity score,HDQ-P1 [8],0
same,drug sensitivity score,CAL-85-1,0
same,drug sensitivity score,BT-549,0
CN[C@@H](C)C(=O)N[C@H]1CN(C(=O)CC(C)C)CC[C@H]2CC[C@@H](C(=O)NC(c3ccccc3)c3ccccc3)N2C1=O [AT-406],drug sensitivity score,HCC1599 [1],0
same,drug sensitivity score,MDA-MB-468 [2],0
same,drug sensitivity score,MDA-MB-436,0
same,drug sensitivity score,CAL-51 [3],0
same,drug sensitivity score,MDA-MB-231 [4],25.5
same,drug sensitivity score,MCF-10A,0
same,drug sensitivity score,BT-474 [5],0.17
same,drug sensitivity score,HCC1143 [18],0
same,drug sensitivity score,DU-4475 [6],0
same,drug sensitivity score,Hs578T,0
same,drug sensitivity score,MDA-MB-453,0
same,drug sensitivity score,HCC1937 [7],0
same,drug sensitivity score,HDQ-P1 [8],4.26
same,drug sensitivity score,CAL-85-1,22.9
same,drug sensitivity score,BT-549,8.86
CC[C@H](CO)Nc1nc(NCc2ccccc2)c2ncn(C(C)C)c2n1 [Roscovitine],normalised viability,HCC1599 [9]; 10 nM,109%
same,normalised viability,HCC1599 [9]; 1000 nM,95.8%
same,normalised viability,HCC1599 [9]; 10000 nM,64.4%
same,normalised viability,MDA-MB-468 [10]; 10 nM,93%
same,normalised viability,MDA-MB-468 [10]; 1000 nM,106%
same,normalised viability,MDA-MB-468 [10]; 10000 nM,83.7%
same,normalised viability,CAL-51 [11]; 3 nM,111%
same,normalised viability,CAL-51 [11]; 30 nM,105%
same,normalised viability,CAL-51 [11]; 100 nM,105%
same,normalised viability,MDA-MB-231 [12]; 10 nM,88%
same,normalised viability,MDA-MB-231 [12]; 1000 nM,96.5%
same,normalised viability,MDA-MB-231 [12]; 10000 nM,76.6%
same,normalised viability,BT-474 [13]; 10 nM,109%
same,normalised viability,BT-474 [13]; 1000 nM,96.5%
same,normalised viability,BT-474 [13]; 10000 nM,79.4%
same,normalised viability,HCC1143 [14]; 10 nM,84.3%
same,normalised viability,HCC1143 [14]; 1000 nM,88.1%
same,normalised viability,HCC1143 [14]; 10000 nM,74.7%
same,normalised viability,DU-4475 [15]; 3 nM,99.9%
same,normalised viability,DU-4475 [15]; 30 nM,101%
same,normalised viability,DU-4475 [15]; 100 nM,89.7%
same,normalised viability,HCC1937 [16]; 10 nM,83.8%
same,normalised viability,HCC1937 [16]; 1000 nM,105%
same,normalised viability,HCC1937 [16]; 10000 nM,77.2%
same,normalised viability,HDQ-P1 [17]; 3 nM,101%
same,normalised viability,HDQ-P1 [17]; 30 nM,103%
same,normalised viability,HDQ-P1 [17]; 100 nM,98.3%
CC(O)(CS(=O)(=O)c1ccc(F)cc1)C(=O)Nc1ccc(C#N)c(C(F)(F)F)c1 (stereo not given) [Bicalutamide],normalised viability,HCC1599 [9]; 10 nM,98.3%
same,normalised viability,HCC1599 [9]; 1000 nM,93.6%
same,normalised viability,HCC1599 [9]; 10000 nM,109%
same,normalised viability,MDA-MB-468 [10]; 10 nM,118%
same,normalised viability,MDA-MB-468 [10]; 1000 nM,93.9%
same,normalised viability,MDA-MB-468 [10]; 10000 nM,91.3%
same,normalised viability,CAL-51 [11]; 3 nM,116%
same,normalised viability,CAL-51 [11]; 30 nM,109%
same,normalised viability,CAL-51 [11]; 100 nM,99.1%
same,normalised viability,MDA-MB-231 [12]; 10 nM,103%
same,normalised viability,MDA-MB-231 [12]; 1000 nM,122%
same,normalised viability,MDA-MB-231 [12]; 10000 nM,122%
same,normalised viability,BT-474 [13]; 10 nM,119%
same,normalised viability,BT-474 [13]; 1000 nM,109%
same,normalised viability,BT-474 [13]; 10000 nM,138%
same,normalised viability,HCC1143 [14]; 10 nM,94.8%
same,normalised viability,HCC1143 [14]; 1000 nM,105%
same,normalised viability,HCC1143 [14]; 10000 nM,92.7%
same,normalised viability,DU-4475 [15]; 3 nM,92.2%
same,normalised viability,DU-4475 [15]; 30 nM,88.8%
same,normalised viability,DU-4475 [15]; 100 nM,99.1%
same,normalised viability,HCC1937 [16]; 10 nM,101%
same,normalised viability,HCC1937 [16]; 1000 nM,107%
same,normalised viability,HCC1937 [16]; 10000 nM,78.5%
same,normalised viability,HDQ-P1 [17]; 3 nM,86.9%
same,normalised viability,HDQ-P1 [17]; 30 nM,110%
same,normalised viability,HDQ-P1 [17]; 100 nM,118%
same,drug sensitivity score,HCC1599 [1],0
same,drug sensitivity score,CAL-120,0
same,drug sensitivity score,MDA-MB-436,0
same,drug sensitivity score,CAL-51 [3],0
same,drug sensitivity score,MDA-MB-231 [4],0
same,drug sensitivity score,MCF-10A,0
same,drug sensitivity score,BT-474 [5],0
same,drug sensitivity score,HCC1143 [18],0
same,drug sensitivity score,DU-4475 [6],0
same,drug sensitivity score,Hs578T,0
same,drug sensitivity score,MDA-MB-453,0
same,drug sensitivity score,HCC1937 [7],0
same,drug sensitivity score,HDQ-P1 [8],0
same,drug sensitivity score,CAL-85-1,0
same,drug sensitivity score,BT-549,0
